The test system of series [1] is CYP3A4 isoenzyme. On the set-up: method as in PMID 21254598. The note with it: cited from earlier work.
For series [2], the target named is T1, SLCO1B1 (Homo sapiens, UniProt Q9Y6L6).
T1 sequence (Q9Y6L6 1-691): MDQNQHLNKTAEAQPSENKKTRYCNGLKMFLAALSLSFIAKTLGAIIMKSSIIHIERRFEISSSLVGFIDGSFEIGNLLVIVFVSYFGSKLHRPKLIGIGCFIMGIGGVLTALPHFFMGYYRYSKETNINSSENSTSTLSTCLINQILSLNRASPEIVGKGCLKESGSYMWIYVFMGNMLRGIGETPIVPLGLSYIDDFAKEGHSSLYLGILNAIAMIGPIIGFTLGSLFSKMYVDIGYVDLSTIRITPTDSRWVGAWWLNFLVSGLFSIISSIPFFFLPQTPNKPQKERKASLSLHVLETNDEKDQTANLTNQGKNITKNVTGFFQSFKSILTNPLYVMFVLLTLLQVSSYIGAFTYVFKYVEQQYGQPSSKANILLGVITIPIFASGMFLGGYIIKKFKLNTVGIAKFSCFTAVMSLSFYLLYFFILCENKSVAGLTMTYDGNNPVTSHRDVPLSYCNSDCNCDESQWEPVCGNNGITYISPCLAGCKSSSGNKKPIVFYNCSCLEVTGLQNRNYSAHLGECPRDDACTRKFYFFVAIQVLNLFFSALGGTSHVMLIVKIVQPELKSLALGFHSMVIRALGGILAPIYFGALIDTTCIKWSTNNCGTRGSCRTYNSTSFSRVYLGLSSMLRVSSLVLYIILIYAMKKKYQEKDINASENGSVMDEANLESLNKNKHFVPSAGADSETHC
To be noted: HEK293-SLCO1B1 vs HEK293, 10 µM.

The test system of series [3] is chronic brain ischemia. On the set-up: method as in PMID 34932280. To be noted: 318 patients with chronic brain ischemia; cited from earlier work.
In series [4] the test system is SLCO1B1. The series is described as follows: Effect on expression of SLCO1B1 in HepG2 cells (Western blot). The class given is cell-based, human. To be noted: 1, 10, and 100 µM, 24 h incubation. As to the method: The HepG2 cell line was purchased from American Type Culture Collection (Institute of Cytology, Russian Academy of Sciences, Moscow, Russia). Cells were cultured in Dulbecco’s modified Eagle’s medium containing 15% fetal bovine serum, 2 mM l-glutamine, 100 units/mL penicillin G, and 100 μg/mL streptomycin in an atmosphere of 5% CO2 at 37 °C on a 24-well plate until a monolayer was formed. HepG2 cells were used to test the effect of EMHPS on the expression of SLCO1B1.
(§1) To test the effect of EMHPS on the expression of ABCB1 and SLCO1B1, Caco-2 or HepG2 cells, respectively, were cultured on a 6-well plate. EMHPS was used at concentrations of 1, 10, and 100 µM, and the duration of exposure was 24 h. After the incubation, the cells were removed from the surface of the wells with a trypsin–EDTA solution (0.25% trypsin and 0.2% EDTA, Sigma-Aldrich, St. Louis, MO, USA).
(§2) The expression levels of ABCB1 and SLCO1B1 were analyzed via Western blot.
(§3) Cells were lysed with NP40 Cell Lysis Buffer Thermo (Thermo Fisher Scientific) with protease inhibitors (Sigma Aldrich, St. Louis, MO, USA) for 30 min at +4 °C with constant stirring at a rate of 10^7 cells per 100 µL of buffer. Protein concentrations were quantified with the Pierce Coomassie Plus Assay Kit (Thermo Fisher, Rockford, IL, USA). […]

The test system of series [5] is ABCB1. Description: Effect on expression of ABCB1 in Caco-2 cells (Western blot). The class given is cell-based, human. The note with it: 1, 10, and 100 µM, 24 h incubation. The procedure: as §1, §2, §3
The protein content was measured relative to the level of housekeeping protein GAPDH (primary antibodies: GAPDH Loading Control Monoclonal Antibody (GA1R) and […] (Invitrogen); secondary antibodies: secondary rabbit antibodies to primary GAPDH antibodies—Rabbit-anti-Mouse IgG (H + L) Secondary Antibody and HRP (Invitrogen). Chemiluminescence was recorded using ChemiDocXRS+ (Bio-Rad). The intensity of the obtained bands was analyzed densitometrically using ImageLab 6.0.0 software (Bio-Rad).

Series [6] is described as follows: Cytotoxicity (MTT) assay, HEK293 cells. To be noted: human, 1–500 µM, read-out: viability compared to the control. The class given is cell-based. The procedure: Caco-2 and HEK93 cells were incubated in a 96-well microplate (10^4 cells per well) with different concentrations (1, 10, 50, 100, and 500 µM) of EMHPS for 24 h. At the end of incubation, 20 μL of 0.5% 3-(4,5-dimethylthiazol-2-yl)-2,5-diphenyltetrazolium bromide (MTT) was added to each well, followed by a 2 h incubation. The MTT solution was then aspirated and 200 μL of […] dimethyl sulfoxide solution (PanEko) was added. Absorption was recorded after 10 min at 530 nm with a Stat Fax 2100 plate reader (Awareness Technology, Palm City, FL, USA). The survival of cells in the presence of EMHPS was calculated according to the equation: (optical density (OD) of test wells − OD of medium)/(OD of control wells − OD of medium) × 100%, where OD is the optical density.

The term viability denotes a read-out of living cells in per cent, often relative to untreated cells. Turning to `CCc1nc(C)ccc1O.O=C(O)CCC(=O)O` [EMHPS, 2-Ethyl-6-methyl-3-hydroxypyridine succinate], the “effect on CYP3A4 isoenzyme” value in series [1] is given as “inducer”. Moreover, in series [2], the “substrate of SLCO1B1” value is “not a substrate of SLCO1B1”. Also, in series [3], the “benefit over the placebo in basic neurological tests” value is recorded as “statistically significant benefit”. In series [4], the “effect on expression of SLCO1B1” value is listed as “did not significantly affect”. Besides, in series [5], the “effect on expression of ABCB1” value is “did not significantly affect”. In series [6], the viability at 24 h lay in the range of 85 to 105%.
